According to article PMC12527922, “Cocaine chemogenetics blunts drug-seeking by synthetic physiology” (Nature, 2025):
Values joined by “and” are separate entries in the source; they are usually repeats but may differ in a detail not shown here. Identical values can stand only once.

Key:
[1] = target: T1, coca-GlyR (α7(L141G,G175K,Y217F)–GlyR) (Homo sapiens, UniProt P23415+P36544, G175K/L141G/Y217F); experiment: Membrane potential assay, coca-GlyR in HEK293; type: cell-based; settings: coca-GlyR; for Max normalized AVG: AVG of DRs
T1 construct: expressed in transfected cells; host or cells: HEK293 (ATCC CRL-1573), pcDNA3.1

unmodified α7–5HT3 = target: T2, unmodified α7–5HT3 (UniProt P23979+P36544, M226I/T225I); experiment: Membrane potential assay, unmodified α7–5HT3; type: cell-based, human α7 nAChR LBD, mouse 5HT3 IPD; settings: a7-5Ht3; for Max normalized AVG: AVG of DR 1-3; for Max normalized, single replicate: relative to ACh max of the DR
T2 construct: expressed in transfected cells; host or cells: HEK293 (ATCC CRL-1573), pcDNA3.1

unmodified α7–GlyR = target: T3, unmodified α7–GlyR (Homo sapiens, UniProt P23415+P36544); experiment: Membrane potential assay, unmodified α7–GlyR; type: cell-based; settings: a7-GlyR
T3 construct: expressed in transfected cells; host or cells: HEK293 (ATCC CRL-1573), pcDNA3.1

[2] = tested on: coca-5HT3 in cultured hippocampal neurons; experiment: Current-clamp of cultured hippocampal neurons expressing coca-5HT3; type: cell-based, rat; settings: coca-5HT3; coc (3 uM) relative to pre; unlabelled mean line
[3] = tested on: hippocampal neurons expressing GFP; experiment: Current-clamp of control cultured hippocampal neurons expressing GFP; type: cell-based, rat; settings: GFP; 3 uM relative to PRE; unlabelled mean line
[4] = target: coca-5HT3 (α7(L141G,G175K,Y210F,Y217F)–5HT3) (Homo sapiens, UniProt P36544, G175K/L141G/Y210F/Y217F); experiment: Membrane potential assay, coca-5HT3 in HEK293; settings: coca-5HT3; for Max normalized AVG: AVG of DRs
coca-5HT3 (α7(L141G,G175K,Y210F,Y217F)–5HT3), sequence (P36544 23-224 L141G/G175K/Y210F/Y217F): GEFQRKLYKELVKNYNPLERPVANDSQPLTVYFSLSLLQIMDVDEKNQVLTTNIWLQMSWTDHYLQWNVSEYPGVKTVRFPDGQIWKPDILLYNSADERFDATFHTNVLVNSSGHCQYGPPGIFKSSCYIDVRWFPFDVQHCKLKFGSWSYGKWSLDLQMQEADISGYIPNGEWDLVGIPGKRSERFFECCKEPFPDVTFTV
coca-5HT3 (α7(L141G,G175K,Y210F,Y217F)–5HT3), sequence (P23979 242-489, further chain): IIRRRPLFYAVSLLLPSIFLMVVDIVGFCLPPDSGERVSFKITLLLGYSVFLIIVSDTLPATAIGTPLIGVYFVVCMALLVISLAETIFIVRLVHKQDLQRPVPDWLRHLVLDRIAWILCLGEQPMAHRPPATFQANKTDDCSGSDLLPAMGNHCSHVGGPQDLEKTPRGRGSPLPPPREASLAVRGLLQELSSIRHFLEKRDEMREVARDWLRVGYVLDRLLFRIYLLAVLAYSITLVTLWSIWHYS

T1 sequence (P36544+P23415 fused P36544:L141G/P36544:G175K/P36544:Y217F): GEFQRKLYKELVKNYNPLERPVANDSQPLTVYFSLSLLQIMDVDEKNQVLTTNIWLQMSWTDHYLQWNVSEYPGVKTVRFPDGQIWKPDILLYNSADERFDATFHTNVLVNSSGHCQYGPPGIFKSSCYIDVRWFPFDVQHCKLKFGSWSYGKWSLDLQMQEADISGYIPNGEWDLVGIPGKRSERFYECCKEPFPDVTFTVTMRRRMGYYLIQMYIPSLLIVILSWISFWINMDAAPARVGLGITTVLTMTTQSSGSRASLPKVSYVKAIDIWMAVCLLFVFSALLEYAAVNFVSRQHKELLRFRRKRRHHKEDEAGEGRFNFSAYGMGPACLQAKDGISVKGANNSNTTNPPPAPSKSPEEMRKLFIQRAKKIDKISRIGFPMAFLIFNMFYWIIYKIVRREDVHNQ
T3 sequence (P36544+P23415 fused): as the sequence (P36544+P23415 fused P36544:L141G/P36544:G175K/P36544:Y217F) above, with G119L, K153G, F195Y counted along it
T2 sequence (P36544+P23979 fused P36544:T225I/P36544:M226I): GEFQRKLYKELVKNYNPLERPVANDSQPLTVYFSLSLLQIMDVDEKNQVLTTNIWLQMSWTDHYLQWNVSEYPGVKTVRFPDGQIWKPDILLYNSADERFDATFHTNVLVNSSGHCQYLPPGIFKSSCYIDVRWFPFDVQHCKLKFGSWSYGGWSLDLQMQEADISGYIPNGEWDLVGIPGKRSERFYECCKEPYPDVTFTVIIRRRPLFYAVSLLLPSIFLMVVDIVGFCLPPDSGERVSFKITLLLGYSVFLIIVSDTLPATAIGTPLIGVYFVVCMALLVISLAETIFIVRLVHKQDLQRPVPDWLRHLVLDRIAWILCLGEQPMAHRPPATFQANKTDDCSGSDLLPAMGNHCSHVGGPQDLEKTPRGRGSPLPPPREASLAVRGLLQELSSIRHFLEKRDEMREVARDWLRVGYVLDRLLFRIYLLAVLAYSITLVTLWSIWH

COC(=O)[C@H]1[C@@H](OC(=O)c2ccccc2)C[C@@H]2CC[C@H]1N2C [coc]
DR response, single replicate ([1]; [coc] 0.0137174): 0.056 and 0.038 and 0.023 and 0.039 and 0.008 and 0.041
Max normalized, single replicate ([1]; [coc] 0.0137174): 0.03823 and 0.06336 and 0.05409 and 0.0128 and 0.05758 and 0.03944
Max normalized AVG ([1]; [coc] 0.0137174): 0.03793
DR response, single replicate ([1]; [coc] 0.0411523): 0.06 and 0.037 and 0.017 and 0.078 and 0.025 and 0.015 and 0.049
Max normalized, single replicate ([1]; [coc] 0.0411523): 0.03722 and 0.04683 and 0.05159 and 0.03467 and 0.024 and 0.06882 and 0.04225
Max normalized AVG ([1]; [coc] 0.0411523): 0.04363
DR response, single replicate ([1]; [coc] 0.123457): 0.034 (2×) and 0.037 and 0.031 and 0.077 and 0.02 and 0.024
Max normalized, single replicate ([1]; [coc] 0.123457): 0.03722 and 0.0854 and 0.05093 and 0.02774 and 0.0384 and 0.04775 and 0.02394
Max normalized AVG ([1]; [coc] 0.123457): 0.04448
DR response, single replicate ([1]; [coc] 0.37037): 0.097 and 0.151 and 0.076 and 0.133 and 0.062 and 0.045 and 0.065
Max normalized, single replicate ([1]; [coc] 0.37037): 0.1519 and 0.2094 and 0.08796 and 0.08599 and 0.072 and 0.09129 and 0.06831
Max normalized AVG ([1]; [coc] 0.37037): 0.1095
DR response, single replicate ([1]; [coc] 1.11111): 0.511 and 0.61 and 0.222 and 1.095 and 0.27 and 0.244 and 0.282
Max normalized, single replicate ([1]; [coc] 1.11111): 0.6137 and 0.6116 and 0.7242 and 0.3745 and 0.3904 and 0.3961 and 0.3599
Max normalized AVG ([1]; [coc] 1.11111): 0.4958
DR response, single replicate ([1]; [coc] 3.33333): 1.226 and 0.859 and 0.343 and 1.133 and 0.644 and 0.538 and 0.653
Max normalized, single replicate ([1]; [coc] 3.33333): 0.8642 and 0.9449 and 0.7493 and 0.8932 and 0.8608 and 0.9171 and 0.8634
Max normalized AVG ([1]; [coc] 3.33333): 0.8704
DR response, single replicate ([1]; [coc] 10): 1.42 and 0.941 and 1.448 and 0.721 and 0.62 and 0.712
Max normalized, single replicate ([1]; [coc] 10): 0.9467 and 1 (4×) and 0.9577 and 0.992
Max normalized AVG ([1]; [coc] 10): 0.9852
DR response, single replicate ([1]; [coc] 30): 1.327 and 0.994 and 1.512 and 0.592 and 0.625
Max normalized, single replicate ([1]; [coc] 30): 1 (3×) and 0.8211 and 0.9345
Max normalized AVG ([1]; [coc] 30): 0.9511
max (DR response of the replicate) ([1]; largest response of each DR): 1.42 and 0.994 and 0.363 and 1.512 and 0.721 and 0.625 and 0.712
DR response, single replicate (unmodified α7–5HT3; concentration 0.0457247): 0.035 and 0.029 and 0.04
Max normalized AVG (unmodified α7–5HT3; concentration 0.0457247): 0.03558
Max normalized, single replicate (unmodified α7–5HT3; concentration 0.0457247): 0.02736 and 0.03711 and 0.04227
DR response, single replicate (unmodified α7–5HT3; concentration 0.137174): 0.031 and 0.062 and 0.034
Max normalized AVG (unmodified α7–5HT3; concentration 0.137174): 0.04249
Max normalized, single replicate (unmodified α7–5HT3; concentration 0.137174): 0.05849 and 0.03154 and 0.03744
DR response, single replicate (unmodified α7–5HT3; concentration 0.411523): 0.023 and 0.07 and 0.034
Max normalized AVG (unmodified α7–5HT3; concentration 0.411523): 0.04179
Max normalized, single replicate (unmodified α7–5HT3; concentration 0.411523): 0.06604 and 0.03154 and 0.02778
DR response, single replicate (unmodified α7–5HT3; concentration 1.23457): 0.031 and 0.038 and 0.043
Max normalized AVG (unmodified α7–5HT3; concentration 1.23457): 0.03773
Max normalized, single replicate (unmodified α7–5HT3; concentration 1.23457): 0.03585 and 0.03989 and 0.03744
DR response, single replicate (unmodified α7–5HT3; concentration 3.7037): 0.019 and 0.031 and 0.039
Max normalized AVG (unmodified α7–5HT3; concentration 3.7037): 0.02946
Max normalized, single replicate (unmodified α7–5HT3; concentration 3.7037): 0.02925 and 0.03618 and 0.02295
DR response, single replicate (unmodified α7–5HT3; concentration 11.1111): 0.036 and 0.037 and 0.017
Max normalized AVG (unmodified α7–5HT3; concentration 11.1111): 0.03138
Max normalized, single replicate (unmodified α7–5HT3; concentration 11.1111): 0.03491 and 0.01577 and 0.04348
DR response, single replicate (unmodified α7–5HT3; concentration 33.3333): 0.037 and 0.071 and 0.05
Max normalized AVG (unmodified α7–5HT3; concentration 33.3333): 0.05268
Max normalized, single replicate (unmodified α7–5HT3; concentration 33.3333): 0.06698 and 0.04638 and 0.04469
DR response, single replicate (unmodified α7–5HT3; concentration 100): 0.055 and 0.086 and 0.089
Max normalized AVG (unmodified α7–5HT3; concentration 100): 0.07671
Max normalized, single replicate (unmodified α7–5HT3; concentration 100): 0.08113 and 0.08256 and 0.06643
DR response, single replicate (unmodified α7–GlyR; concentration 0.0457247): 0.05 and 0.083 and 0.071
DR response, single replicate (unmodified α7–GlyR; concentration 0.137174): 0.031 and 0.061 and 0.045
DR response, single replicate (unmodified α7–GlyR; concentration 0.411523): 0.036 and 0.075 and 0.045
DR response, single replicate (unmodified α7–GlyR; concentration 1.23457): 0.032 and 0.049 and 0.043
DR response, single replicate (unmodified α7–GlyR; concentration 3.7037): 0.027 and 0.033 and 0.028
DR response, single replicate (unmodified α7–GlyR; concentration 11.1111): 0.032 and 0.038 and 0.034
DR response, single replicate (unmodified α7–GlyR; concentration 33.3333): 0.046 and 0.052 and 0.049
DR response, single replicate (unmodified α7–GlyR; concentration 100): 0.053 and 0.079 (2×)
Rheobase Normalized, mean of cells [2]: 0.5604
Rheobase Normalized, mean of cells [3]: 1.094
DR response, single replicate ([4]; [coc] 0.0137174): 0.067 and 0.015 and 0.01 and 0.009 and 0.046 and 0.1 and 0.014
Max normalized, single replicate ([4]; [coc] 0.0137174): 0.01571 and 0.04202 and 0.03502 and 0.04968 and 0.07513 and 0.01777 and 0.06549
Max normalized AVG ([4]; [coc] 0.0137174): 0.04297
DR response, single replicate ([4]; [coc] 0.0411523): 0.051 and 0.054 and 0.011 and 0.02 and 0.076 and 0.06 and 0.008 and 0.009
Max normalized, single replicate ([4]; [coc] 0.0411523): 0.05654 and 0.04622 and 0.07782 and 0.08207 and 0.04508 and 0.01015 and 0.007098 and 0.04985
Max normalized AVG ([4]; [coc] 0.0411523): 0.04686
DR response, single replicate ([4]; [coc] 0.123457): 0.063 and 0.015 and 0.01 and 0.013 (2×) and 0.056 and 0.037 and 0.035
Max normalized, single replicate ([4]; [coc] 0.123457): 0.01571 and 0.04202 and 0.05058 and 0.06048 and 0.0278 and 0.04442 and 0.01025 and 0.06158
Max normalized AVG ([4]; [coc] 0.123457): 0.0391
DR response, single replicate ([4]; [coc] 0.37037): 0.098 and 0.161 and 0.012 and 0.019 and 0.144 and 0.109 and 0.122 and 0.014
Max normalized, single replicate ([4]; [coc] 0.37037): 0.1686 and 0.05042 and 0.07393 and 0.1555 and 0.08189 and 0.1548 and 0.01104 and 0.0958
Max normalized AVG ([4]; [coc] 0.37037): 0.099
DR response, single replicate ([4]; [coc] 1.11111): 0.363 and 0.54 and 0.108 and 0.033 and 0.699 and 0.66 and 0.506 and 0.355
Max normalized, single replicate ([4]; [coc] 1.11111): 0.5654 and 0.4538 and 0.1284 and 0.7549 and 0.4959 and 0.6421 and 0.28 and 0.3548
Max normalized AVG ([4]; [coc] 1.11111): 0.4594
DR response, single replicate ([4]; [coc] 3.33333): 0.825 and 0.861 and 0.191 and 0.144 and 0.926 and 1.093 and 0.788 and 0.762
Max normalized, single replicate ([4]; [coc] 3.33333): 0.9016 and 0.8025 and 0.5603 and 1 (2×) and 0.8212 and 0.6009 and 0.8065
Max normalized AVG ([4]; [coc] 3.33333): 0.8116
DR response, single replicate ([4]; [coc] 10): 1.023 and 0.955 and 0.229 and 0.257 and 0.908 and 1.331 and 0.736 and 1.159
Max normalized, single replicate ([4]; [coc] 10): 1 (4×) and 0.9622 and 0.9806 and 0.934 and 0.914
Max normalized AVG ([4]; [coc] 10): 0.9738
DR response, single replicate ([4]; [coc] 30): 0.864 and 0.903 and 0.238 and 0.251 and 1.268
Max normalized, single replicate ([4]; [coc] 30): 0.9456 and 1 (2×) and 0.9767 and 0.8446
Max normalized AVG ([4]; [coc] 30): 0.9534
max (DR response of the replicate) ([4]; largest response of each DR): 1.023 and 0.955 and 0.238 and 0.257 and 0.926 and 1.331 and 0.788 and 1.268
